Laboratory results from patent US6949542B2, “Dihydro-benzo[b][1,4]diazepin-2-one derivatives” (Hoffman-La Roche Inc., priority 2002, dated 2005).

Row | SMILES | melting point
1 | CCc1ccc(-c2cccc(C3=Nc4ccc(C(F)(F)F)cc4NC(=O)C3)c2)cn1 [Example 191, 4-[3-(6-Ethyl-pyridin-3-yl)-phenyl]-8-trifluoromethyl-1,3-dihydro-benzo[b][1,4]diazepin-2-one] | 211 °C
2 | CCCN(C)c1cc2c(cc1C(F)(F)F)NC(=O)CC(c1cccc(-c3cc(C)nc(C)c3)c1)=N2 [Example 413, 4-[3-(2,6-Dimethyl-pyridin-4-yl)-phenyl]-7-(methyl-propyl-amino)-8-trifluoromethyl-1,3-dihydro-benzo[b][1,4]diazepin-2-one] | 233 °C
3 | Cc1cc2c(cc1C(F)(F)F)NC(=O)CC(c1cccc(-c3ccnc(C)c3C)c1)=N2 [Example 141, 4-[3-(2,3-Dimethyl-pyridin-4-yl)-phenyl]-7-methyl-8-trifluoromethyl-1,3-dihydro benzo[b][1,4]diazepin-2-one] | 222 °C
4 | O=C1CC(c2cccc(-c3ccnc(CN4CCC4)c3)c2)=Nc2cc(OCC(F)(F)F)c(C(F)(F)F)cc2N1 [Example 381, 4-[3-(2-Azetidin-1-ylmethyl-pyridin-4-yl)-phenyl]-7-(2,2,2-trifluoro-ethoxy)-8-trifluoromethyl-1,3-dihydro-benzo[b][1,4]diazepin-2-one] | 190 °C
5 | Cc1cc2c(cc1C(F)(F)F)N=C(c1cccc(-c3ccncc3)c1)CC(=O)N2 [Example 64, 8-Methyl-4-(3-pyridin-4-yl-phenyl)-7-trifluoromethyl-1,3-dihydro-benzo[b][1,4]diazepin-2-one] | 217 °C
6 | O=C1CC(c2cccc(-c3cnccn3)c2)=Nc2ccc(-c3ccccc3F)cc2N1 [Example 92, 8-(2-Fluoro-phenyl)-4-(3-pyrazin-2-yl-phenyl)-1,3-dihydro-benzo[b][1,4]diazepin-2-one] | 241 °C
7 | CN(C)c1ccc(-c2cccc(C3=Nc4cc(OCC(F)(F)F)c(C(F)(F)F)cc4NC(=O)C3)c2)cn1 [Example 218, 4-[3-(6-Dimethylamino-pyridin-3-yl)-phenyl]-7-(2,2,2-trifluoro-ethoxy)-8-trifluoromethyl-1,3-dihydro-benzo[b][1,4]diazepin-2-one] | 240 to 241 °C

The remaining lines, values ahead:

Row | melting point | SMILES
8 | 176 to 180 °C | Cc1cc(C)c(-c2cccc(C3=Nc4cc(OCC(F)(F)F)c(C(F)(F)F)cc4NC(=O)C3)c2)cn1 [Example 253, 4-[3-(4,6-Dimethyl-pyridin-3-yl)-phenyl]-7-(2,2,2-trifluoro-ethoxy)-8-trifluoromethyl-1,3-dihydro-benzo[b][1,4]diazepin-2-one]
9 | 220 to 222 °C | Cc1cc(-c2cccc(C3=Nc4cc(Cl)c(Cl)cc4NC(=O)C3)c2)ncn1 [Example 313, 7,8-Dichloro-4-[3-(6-methyl-pyrimidin-4-yl)-phenyl]-1,3-dihydro-benzo[b][1,4]diazepin-2-one]
10 | 182 °C | CCc1cnc(C)cc1-c1cccc(C2=Nc3cc(C)c(C(F)(F)F)cc3NC(=O)C2)c1 [Example 148, 4-[3-(5-Ethyl-2-methyl-pyridin-4-yl)-phenyl]-7-methyl-8-trifluoromethyl-1,3-dihydro benzo[b][1,4]diazepin-2-one]
11 | 200 °C | CCc1cc(C)c(-c2cccc(C3=Nc4cc(C)c(C(F)(F)F)cc4NC(=O)C3)c2)cn1 [Example 254, 4-[3-(6-Ethyl-4-methyl-pyridin-3-yl)-phenyl]-7-methyl-8-trifluoromethyl-1,3-dihydro-benzo[b][1,4]diazepin-2-one]
12 | 151 °C | Cc1cc2c(cc1Cl)NC(=O)CC(c1cccc(-c3ccnc(CN(C)CC(C)C)c3)c1)=N2 [Example 396, 8-Chloro-4-(3-{2-[(isobutyl-methyl-amino)-methyl]-pyridin-4-yl}-phenyl)-7-methyl-1,3-dihydro-benzo[b][1,4]diazepin-2-one]
13 | 215 to 220 °C | Cc1nccc(-c2cccc(C3=Nc4ccc(Cl)cc4NC(=O)C3)c2)n1 [Example 305, 8-Chloro-4-[3-(2-methyl-pyrimidin-4-yl)-phenyl]-1,3-dihydro-benzo[b][1,4]diazepin-2-one]
